Reference: patent publication US12558428B2, “Heterobifunctional compounds and their use in treating disease” (Halda Therapeutics OpCo, Inc., priority 2024, dated 2026)

Columns and labels:
[1] = system: T-Rex 293 cells having increased expression of estrogen receptor alpha protein; experiment: Cellular growth inhibition assay, T-Rex 293 cells, (+) doxycycline; format: cell-based; conditions: T-REx-293, 72 h, T-Rex 293 cells with doxycycline-induced ERα expression, 72 hours, CellTiter-Glo 2.0; read-out: (+) Dox TRex ERa (GI50)
Procedure, shortened: (§1)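 Cells of an inducible ERα-expressing T-Rex 293 clone are seeded in charcoal-dextran FBS medium with or without 3 ng/mL doxycycline, then treated after 24 h with compound dilutions (0.5% DMSO) for 72 h. Growth inhibition is measured by CellTiter-Glo luminescence and expressed as GI50.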

[2] = system: T-Rex 293 cells lacking increased expression of estrogen receptor alpha protein; experiment: Cellular growth inhibition assay, T-Rex 293 cells, (−) doxycycline; format: cell-based; conditions: T-REx-293, 72 h, T-Rex 293 cells without doxycycline, 72 hours, CellTiter-Glo 2.0; read-out: (−) Dox TRex ERa (GI50)
Procedure, shortened: as §1

Structure (SMILES) | GI50 [1] | GI50 [2]
CCN(CCCCCCCCNC(=O)C[C@@H]1N=C(c2ccc(Cl)cc2)c2c(sc(C)c2C)-n2c(C)nnc21)CCOc1ccc(C(=O)c2c(-c3ccc(O)cc3)sc3cc(O)ccc23)cc1 [I-2, (S)-2-(4-(4-chlorophenyl)-2,3,9-trimethyl-6H-thieno[3,2-f][1,2,4]triazolo[4,3-a][1,4]diazepin-6-yl)-N-(8-(ethyl(2-(4-(6-hydroxy-2-(4-hydroxyphenyl)benzo[b]thiophene-3-carbonyl)phenoxy)ethyl)amino)octyl)acetamide] | 0.05 to 0.5 µM | 0.05 to 0.5 µM
CCN(CCOCCOCCNC(=O)C[C@@H]1N=C(c2ccc(Cl)cc2)c2c(sc(C)c2C)-n2c(C)nnc21)CCOc1ccc(C(=O)c2c(-c3ccc(O)cc3)sc3cc(O)ccc23)cc1 [I-3, (S)-2-(4-(4-chlorophenyl)-2,3,9-trimethyl-6H-thieno[3,2-f][1,2,4]triazolo[4,3-a][1,4]diazepin-6-yl)-N-(2-(2-(2-(ethyl(2-(4-(6-hydroxy-2-(4-hydroxyphenyl)benzo[b]thiophene-3-carbonyl)phenoxy)ethyl)amino)ethoxy)ethoxy)ethyl) acetamide] | 0.05 to 0.5 µM | 0.5 to 2.5 µM
